For the experiment, the target named is T1, human mAChR M4 (Homo sapiens, UniProt P08173).
T1 construct: expressed in transfected cells; host or cells: CHO-K1 (ATCC), stably expressing hM4 and Gqi5
T1 sequence (P08173 1-479): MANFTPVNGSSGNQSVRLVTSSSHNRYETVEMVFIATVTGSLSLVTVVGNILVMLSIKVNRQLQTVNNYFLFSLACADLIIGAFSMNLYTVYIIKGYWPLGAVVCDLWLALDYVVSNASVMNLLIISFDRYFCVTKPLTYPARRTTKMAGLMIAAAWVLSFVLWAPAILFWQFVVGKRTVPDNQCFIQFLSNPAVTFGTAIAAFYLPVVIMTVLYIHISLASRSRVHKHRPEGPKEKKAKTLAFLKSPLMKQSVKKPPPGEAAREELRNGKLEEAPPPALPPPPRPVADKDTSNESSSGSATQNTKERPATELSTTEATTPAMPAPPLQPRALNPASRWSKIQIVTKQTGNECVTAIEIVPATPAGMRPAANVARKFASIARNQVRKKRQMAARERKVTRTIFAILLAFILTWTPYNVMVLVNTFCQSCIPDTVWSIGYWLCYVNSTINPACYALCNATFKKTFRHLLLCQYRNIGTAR
Description: mAChR M4 cell-based functional assay: calcium flux (Fluo-4, FDSS), positive allosteric modulator activity on the EC20 acetylcholine response, hM4-Gqi5 CHO-K1 cells. To be noted: for Emax at 30 µM: CHO-K1, human M4, % ACh maximum at 30 μM; for EC50: human M4, PAM activity on EC20 acetylcholine response, calcium flux, read-out: Human M4 EC50. The method in brief: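 Potentiation was taken as the concentration-dependent rise in the EC20 acetylcholine calcium response, fitted by a four-parameter logistic with EC20 as baseline. Fluo-4-loaded hM4-Gqi5 CHO-K1 cells received 11-point, threefold-diluted compound before acetylcholine at 144 s; FDSS read at 1 Hz.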

For 28 compounds, Emax and EC50 results are on record in patent publication US20250026752A1, “POSITIVE ALLOSTERIC MODULATORS OF THE MUSCARINIC ACETYLCHOLINE RECEPTOR M4” (Vanderbilt University, priority 2021, published 2025).

SMILES strings stand for the structures.

In the case of `Cc1nc(N2CCc3ncc(-c4ccccc4C)cc3C2)c2cc(F)ccc2n1` [Compound 294, 6-fluoro-2-methyl-4-(3-(o-tolyl)-7,8-dihydro-1,6-naphthyridin-6(5H)-yl)quinazoline], the Emax at 30 µM is 68% and the EC50 was found to be 1630 nM.
The matching figures for `COc1ccc2ncnc(N3CCc4ncc(Oc5ccc(C)cc5F)cc4C3)c2c1` [Compound 146, 4-[3-(2-fluoro-4-methyl-phenoxy)-7,8-dihydro-5H-1,6-naphthyridin-6-yl]-6-methoxy-quinazoline]: 40% and more than 10000 nM.
The matching figures for `Cc1nc(N2CCc3ncc(-c4cnn(C)c4)cc3C2)c2cc(Cl)ccc2n1` [Compound 46, 6-chloro-2-methyl-4-[3-(1-methylpyrazol-4-yl)-7,8-dihydro-5H-1,6-naphthyridin-6-yl]quinazoline]: 97% and 170 nM.
On the same counts, the results for `Cn1nccc1Nc1nc(N2CCc3ncc(C(F)(F)F)cc3C2)c2cc(F)ccc2n1` [Compound 197, 6-fluoro-N-(2-methylpyrazol-3-yl)-4-[3-(trifluoromethyl)-7,8-dihydro-5H-1,6-naphthyridin-6-yl]quinazolin-2-amine] are 98% and 340 nM.
In the case of `Clc1nc(N2CCc3ncc(-c4cnn(C5CC5)c4)cc3C2)c2cccnc2n1` [Compound 34, 2-chloro-4-[3-(1-cyclopropylpyrazol-4-yl)-7,8-dihydro-5H-1,6-naphthyridin-6-yl]pyrido[2,3-d]pyrimidine], the maximal response (Emax) at 30 µM amounted to 53% and the 50% effective concentration (EC50) turned out to be 600 nM.
On the same counts, the results for `Cc1nc(N2CCc3ncc(N4CCCn5nccc54)cc3C2)c2cc(Cl)ccc2n1` [Compound 84] are 114% and 230 nM.
The matching figures for `Cc1nc(N2CCc3ncc(C(C)(O)C(F)(F)F)cc3C2)c2cc(Cl)ccc2n1` (centres unmarked) [Compound 291, 2-(6-(6-chloro-2-methylquinazolin-4-yl)-5,6,7,8-tetrahydro-1,6-naphthyridin-3-yl)-1,1,1-trifluoropropan-2-ol]: 97% and 400 nM.
On the same counts, the results for `CC1CN(c2ncnc3ccc(F)cc23)Cc2cc(Nc3cccnc3)cnc21` (centres unmarked) [Compound 234, 6-(6-fluoroquinazolin-4-yl)-8-methyl-N-(pyridin-3-yl)-5,6,7,8-tetrahydro-1,6-naphthyridin-3-amine] are 86% and 110 nM.
Regarding `COc1ccc2nc(Cl)nc(N3CCc4ncc(C(F)(F)F)cc4C3)c2c1` [Compound 166, 2-chloro-6-methoxy-4-[3-(trifluoromethyl)-7,8-dihydro-5H-1,6-naphthyridin-6-yl]quinazoline], the maximal response (Emax) at 30 µM was 70% and the 50% effective concentration (EC50) was determined as 420 nM.
The matching figures for `Clc1ccc2nc(Cl)nc(N3CCc4ncc(Br)cc4C3)c2c1` [Compound 149, 4-(3-bromo-7,8-dihydro-5H-1,6-naphthyridin-6-yl)-2,6-dichloro-quinazoline]: 97% and 170 nM.
As for `Fc1ccc2nc(N3CCOc4ncccc43)nc(N3CCc4ncc(C(F)(F)F)cc4C3)c2c1` [Compound 198, 1-[6-fluoro-4-[3-(trifluoromethyl)-7,8-dihydro-5H-1,6-naphthyridin-6-yl]quinazolin-2-yl]-2,3-dihydropyrido[2,3-b][1,4]oxazine], the maximal effect (Emax) at 30 µM came to 94% and the EC50 worked out at 670 nM.
As for `Fc1ccc2ncnc(N3CCc4ncc(-c5ccc(C(F)(F)F)nc5)cc4C3)c2c1` [Compound 16, 6-fluoro-4-[3-[6-(trifluoromethyl)-3-pyridyl]-7,8-dihydro-5H-1,6-naphthyridin-6-yl]quinazoline], the maximal effect (Emax) at 30 µM is 89% and the half-maximal effective concentration (EC50) worked out at 360 nM.
On the same counts, the results for `Cc1ccc2nc(C)nc(N3CCc4ncc(-c5cc(F)ccc5C)cc4C3)c2c1` [Compound 317, 4-(3-(5-fluoro-2-methylphenyl)-7,8-dihydro-1,6-naphthyridin-6(5H)-yl)-2,6-dimethylquinazoline] are 91% and 2800 nM.
The matching figures for `Cc1ccccc1-c1cnc2c(c1)CN(c1ncnc3ccc(Cl)cc13)CC2` [Compound 300, 6-chloro-4-(3-(o-tolyl)-7,8-dihydro-1,6-naphthyridin-6(5H)-yl)quinazoline]: 96% and 3600 nM.
On the same counts, the results for `OC1(C2CC2)CN(c2nc(N3CCc4ncc(C(F)(F)F)cc4C3)c3cc(F)ccc3n2)C1` [Compound 201, 3-cyclopropyl-1-[6-fluoro-4-[3-(trifluoromethyl)-7,8-dihydro-5H-1,6-naphthyridin-6-yl]quinazolin-2-yl]azetidin-3-ol] are 97% and 290 nM.
With `Fc1cc2ncnc(N3CCc4ncc(C5CC5)cc4C3)c2cc1F` [Compound 162, 4-(3-cyclopropyl-7,8-dihydro-5H-1,6-naphthyridin-6-yl)-6,7-difluoro-quinazoline], the maximum response (Emax) at 30 µM amounted to 88% and the EC50 amounted to 60 nM.
Regarding `Cc1nc(N2Cc3cc(C(F)(F)F)cnc3C(C)C2)c2cc(F)ccc2n1` (centres unmarked) [Compound 157, 6-fluoro-2-methyl-4-[8-methyl-3-(trifluoromethyl)-7,8-dihydro-5H-1,6-naphthyridin-6-yl]quinazoline], the Emax at 30 µM amounted to 95% and the 50% effective concentration (EC50) stood at 220 nM.
The matching figures for `Fc1ccc2ncnc(N3CCc4ncc(-c5ccc(C6CC6)nc5)cc4C3)c2c1` [Compound 37, 4-[3-(6-cyclopropyl-3-pyridyl)-7,8-dihydro-5H-1,6-naphthyridin-6-yl]-6-fluoro-quinazoline]: 88% and 260 nM.
The matching figures for `Cc1nn(C)cc1-c1cnc2c(c1)CN(c1nc(C3CC3)nc3ccc(Cl)cc13)CC2` [Compound 191, 6-chloro-2-cyclopropyl-4-[3-(1,3-dimethylpyrazol-4-yl)-7,8-dihydro-5H-1,6-naphthyridin-6-yl]quinazoline]: 80% and 1070 nM.
The matching figures for `Cc1noc(C)c1-c1cnc2c(c1)CN(c1nc(Cl)nc3ccc(F)cc13)CC2` [Compound 29, 4-[6-(2-chloro-6-fluoro-quinazolin-4-yl)-7,8-dihydro-5H-1,6-naphthyridin-3-yl]-3,5-dimethyl-isoxazole]: 97% and 260 nM.
As for `C[C@@H]1CCN(c2cnc3c(c2)CN(c2ncnc4ccc(F)cc24)CC3)c2ccnn21` [Compound 288, (R)-6-fluoro-4-(3-(7-methyl-6,7-dihydropyrazolo[1,5-a]pyrimidin-4(5H)-yl)-7,8-dihydro-1,6-naphthyridin-6(5H)-yl)quinazoline], the Emax at 30 µM turned out to be 75% and the EC50 turned out to be 40 nM.
On the same counts, the results for `COc1ccc2nc(C)nc(N3CCc4ncc(-c5cnc(F)cc5C)cc4C3)c2c1` [Compound 312, 4-(3-(6-fluoro-4-methylpyridin-3-yl)-7,8-dihydro-1,6-naphthyridin-6(5H)-yl)-6-methoxy-2-methylquinazoline] are 76% and 150 nM.
In the case of `Fc1cc2ncnc(N3CCc4ncc(-n5cccn5)cc4C3)c2cc1F` [Compound 238, 4-(3-(1H-pyrazol-1-yl)-7,8-dihydro-1,6-naphthyridin-6(5H)-yl)-6,7-difluoroquinazoline], the Emax at 30 µM was 65% and the EC50 was found to be 220 nM.
`Cn1nccc1-c1cnc2c(c1)CN(c1ncnc3cc(F)c(F)cc13)CC2` [Compound 239, 6,7-difluoro-4-(3-(1-methyl-1H-pyrazol-5-yl)-7,8-dihydro-1,6-naphthyridin-6(5H)-yl)quinazoline]: the maximal effect (Emax) at 30 µM came to 73% and the EC50 amounted to 800 nM.
On the same counts, the results for `Clc1ccc2nc(C3CC3)nc(N3CCc4ncc(N5CCCn6nccc65)cc4C3)c2c1` [Compound 192, 6-chloro-2-cyclopropyl-4-[3-(6,7-dihydro-5H-pyrazolo[1,5-a]pyrimidin-4-yl)-7,8-dihydro-5H-1,6-naphthyridin-6-yl]quinazoline] are 100% and 410 nM.
As for `Fc1ccc2nc(C3CC3)nc(N3CCc4ncc(C(F)(F)F)cc4C3)c2c1` [Compound 178, 2-cyclopropyl-6-fluoro-4-[3-(trifluoromethyl)-7,8-dihydro-5H-1,6-naphthyridin-6-yl]quinazoline], the Emax at 30 µM amounted to 112% and the EC50 turned out to be 1900 nM.
The matching figures for `COc1ccc2ncnc(N3CCc4ncc(-c5ccccc5C)cc4C3)c2c1` [Compound 296, 6-methoxy-4-(3-(o-tolyl)-7,8-dihydro-1,6-naphthyridin-6(5H)-yl)quinazoline]: 102% and 1370 nM.
For the compound `Cc1nc(N2CCc3ncc(-c4c(C)noc4C)cc3C2)c2cc(F)ccc2n1` [Compound 22, 4-[6-(6-fluoro-2-methyl-quinazolin-4-yl)-7,8-dihydro-5H-1,6-naphthyridin-3-yl]-3,5-dimethyl-isoxazole], the Emax at 30 µM came to 90% and the concentration for a half-maximal effect (EC50) turned out to be 120 nM.
